Assay results as given in EP4763839A1 (Pamplona Therapeutics (Shenzhen) Co., Ltd., priority 2023, dated 2025).
Structures can show the parent of a compound that is named as a salt.

Target: T1, IRAK4 (Homo sapiens, UniProt Q9NWZ3)
T1 sequence (Q9NWZ3 1-460): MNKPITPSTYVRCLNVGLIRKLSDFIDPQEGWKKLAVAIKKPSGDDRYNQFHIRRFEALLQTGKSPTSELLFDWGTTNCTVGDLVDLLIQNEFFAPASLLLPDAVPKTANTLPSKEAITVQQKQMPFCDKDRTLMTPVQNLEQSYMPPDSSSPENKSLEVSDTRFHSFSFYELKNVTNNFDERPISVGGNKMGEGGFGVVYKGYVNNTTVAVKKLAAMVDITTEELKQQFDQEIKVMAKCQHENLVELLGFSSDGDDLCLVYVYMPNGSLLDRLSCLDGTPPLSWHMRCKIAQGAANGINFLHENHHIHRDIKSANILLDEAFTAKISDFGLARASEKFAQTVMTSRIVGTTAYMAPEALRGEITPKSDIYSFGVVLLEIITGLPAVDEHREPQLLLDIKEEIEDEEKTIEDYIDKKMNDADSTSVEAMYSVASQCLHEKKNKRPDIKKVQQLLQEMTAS
Assay: Degradation of IRAK4 in THP1 cells, Western blot
Type: cell-based
Set-up: Degradation of IRAK4 in THP1 by compound; host or cells: THP-1
Details: THP-1 cells, 24 hours of incubation; for DC50: IRAK4 protein by Western blot, read-out: DC50; for Dmax: maximum degradation rate, read-out: Dmax
Method: After 24 hours of incubation, the cells were collected into 1.5 mL centrifuge tubes and centrifuged at 1,000 rpm for 5 minutes. […] The supernatants were collected, and the IRAK4 protein levels were respectively detected by Western blot (WB). The total protein concentration in the cell lysate supernatant was determined using a BCA protein quantification kit (NCM). Based on the total protein concentration detected by BCA, the samples were adjusted to 2 μg/μL using cell lysis buffer and 5×SDS-PAGE protein loading buffer (Beyotime), heated at 95°C for 5 minutes in a metal bath, and then placed on ice for an ice bath for 5 minutes before being used as the loading samples for Western blot analysis. Protein electrophoresis was performed using a 10% SDS-PAGE gel with a loading volume of 20 μL (total protein 40 μg) and Tris-SDS electrophoresis at a constant voltage of 80 V. After electrophoresis, the proteins on the gel were transferred to a 0.2 μm PVDF membrane (Immobilon) using a semi-dry transfer method at 0.5 A and 20 V for 60 minutes. After transfer, the membrane was placed in 5% skimmed milk and incubated at rt for 2 hours. After blocking, the PVDF membrane was incubated with primary antibody against IRAK4 (Abcam) at 4°C overnight. […] The color development and protein band imaging were performed using a chemiluminescence imaging system ([…] Technology Co., Ltd.). The protein bands were analyzed for grayscale values using Image J analysis software. The corrected grayscale values for each sample were calculated and then compared with those of the control group treated with DMSO alone to calculate the degradation rate.

Row | SMILES | DC50 | Dmax
1 | N#Cc1ccnc(C(=O)Nc2cn(-c3ccc(N4CCN(CC5CCN(c6ccc(NC7CCC(=O)NC7=O)cc6F)CC5)CC4)cc3)nc2C(N)=O)c1 (stereo not shown) [Compound A349, N-(3-Carbamoyl-1-(4-(4-((1-(4-((2,6-dioxopiperidin-3-yl)amino)-2-fluorophenyl)piperidin-4-yl)methyl)piperazin-1-yl)phenyl)-1H-pyrazol-4-yl)-4-cyanopicolinamide] | > 1000 nM | < 40%
2 | Cn1c(=O)n(C2CCC(=O)NC2=O)c2cccc(N3CCC(CCN4CCN(c5ccc(-n6cc(NC(=O)c7cccc(-c8ccn[nH]8)n7)c(S(N)(=O)=O)n6)cc5)CC4)CC3)c21 (stereo not shown) [Compound A350, N-(1-(4-(4-(2-(1-(1-(2,6-Dioxopiperidin-3-yl)-3-methyl-2-oxo-2,3-dihydro-1H-benzo[d]imidazol-4-yl)piperidin-4-yl)ethyl)piperazin-1-yl)phenyl)-3-sulfamoyl-1H-pyrazol-4-yl)-6-(1H-pyrazol-5-yl)picolinamide] | < 100 nM | > 60%
3 | Cn1c(=O)n(C2CCC(=O)NC2=O)c2cccc(C#CCOC3CN(Cc4ccc(-n5cc(NC(=O)c6cccc(-c7ccn[nH]7)n6)c(S(N)(=O)=O)n5)cc4)C3)c21 (stereo not shown) [Compound A351, N-(1-(4-((3-((3-(1-(2,6-dioxopiperidin-3-yl)-3-methyl-2-oxo-2,3-dihydro-1H-benzo[d]imidazol-4-yl)prop-2-yn-1-yl)oxy)azetidin-1-yl)methyl)phenyl)-3-sulfamoyl-1H-pyrazol-4-yl)-6-(1H-pyrazol-5-yl)picolinamide] | 100 to 1000 nM | 40 to 60%
4 | Cn1c(=O)n(C2CCC(=O)NC2=O)c2cccc(N3CCC(N4CCN(Cc5ccc(-n6cc(NC(=O)c7cccc(-c8ccn[nH]8)n7)c(S(N)(=O)=O)n6)cc5)CC4)CC3)c21 (stereo not shown) [Compound A352] | < 100 nM | > 60%
5 | N#Cc1ccc(C(=O)Nc2cn(-c3ccc(N4CCN(CC5CCN(c6ccc(NC7CCC(=O)NC7=O)cc6F)CC5)CC4)cc3)nc2C(N)=O)nc1 (stereo not shown) [Compound A353, N-(3-Carbamoyl-1-(4-(4-((1-(4-((2,6-dioxopiperidin-3-yl)amino)-2-fluorophenyl)piperidin-4-yl)methyl)piperazin-1-yl)phenyl)-1H-pyrazol-4-yl)-5-cyanopicolinamide] | > 1000 nM | < 40%
6 | Cn1c(=O)n(C2CCC(=O)NC2=O)c2cccc(NCC3CC4(C3)CN(C(=O)c3ccc(-n5cc(NC(=O)c6cccc(-c7ccn[nH]7)n6)c(S(N)(=O)=O)n5)cc3)C4)c21 (stereo not shown) [Compound A354, N-(1-(4-(6-(((1-(2,6-Dioxopiperidin-3-yl)-3-methyl-2-oxo-2,3-dihydro-1H-benzo[d]imidazol-4-yl)amino)methyl)-2-azaspiro[3.3]heptane-2-carbonyl)phenyl)-3-sulfamoyl-1H-pyrazol-4-yl)-6-(1H-pyrazol-5-yl)picolinamide] | < 100 nM | > 60%
7 | NC(=O)c1nn(-c2ccc(N3CCN(C(=O)N4CCC(c5ccc(OC6CCC(=O)NC6=O)cc5F)CC4)CC3)cc2)cc1NC(=O)c1cccc(C(F)(F)F)n1 (stereo not shown) [Compound A355, N-(3-Carbamoyl-1-(4-(4-(4-(4-((2,6-dioxopiperidin-3-yl)oxy)-2-fluorophenyl)piperidine-1-carbonyl)piperazin-1-yl)phenyl)-1H-pyrazol-4-yl)-6-(trifluoromethyl)picolinamide] | < 100 nM | > 60%
8 | Cn1c(=O)n(C2CCC(=O)NC2=O)c2cccc(NCCN3CCN(C(=O)c4ccc(-n5cc(NC(=O)c6cccc(-c7ccn[nH]7)n6)c(S(N)(=O)=O)n5)cc4)CC3)c21 (stereo not shown) [Compound A356, N-(1-(4-(4-(2-((1-(2,6-Dioxopiperidin-3-yl)-3-methyl-2-oxo-2,3-dihydro-1H-benzo[d]imidazol-4-yl)amino)ethyl)piperazine-1-carbonyl)phenyl)-3-sulfamoyl-1H-pyrazol-4-yl)-6-(1H-pyrazol-5-yl)picolinamide] | < 100 nM | > 60%
9 | Cn1c(=O)n(C2CCC(=O)NC2=O)c2cccc(C(=O)N3CCC4(CCN(Cc5ccc(-n6cc(NC(=O)c7cccc(-c8ccn[nH]8)n7)c(S(N)(=O)=O)n6)cc5)C4)CC3)c21 (stereo not shown) [Compound A357, N-(1-(4-((8-(1-(2,6-Dioxopiperidin-3-yl)-3-methyl-2-oxo-2,3-dihydro-1H-benzo[d]imidazole-4-carbonyl)-2,8-diazaspiro[4.5]decan-2-yl)methyl)phenyl)-3-sulfamoyl-1H-pyrazol-4-yl)-6-(1H-pyrazol-5-yl)picolinamide] | < 100 nM | > 60%
10 | NC(=O)c1nn(-c2ccc(N3CCN(CC4CCN(c5ccc(NC6CCC(=O)NC6=O)cc5F)C4)CC3)cc2)cc1NC(=O)c1cccc(C(F)(F)F)n1 (stereo not shown) [Compound A361, N-(3-Carbamoyl-1-(4-(4-((1-(4-((2,6-dioxopiperidin-3-yl)amino)-2-fluorophenyl)pyrrolidin-3-yl)methyl)piperazin-1-yl)phenyl)-1H-pyrazol-4-yl)-6-(trifluoromethyl)picolinamide formate] | 100 to 1000 nM | 40 to 60%
11 | NC(=O)c1nn(-c2ccc(N3CCN(C4CCN(c5ccc(NC6CCC(=O)NC6=O)cc5F)CC4)CC3)cc2)cc1NC(=O)c1cccc(C(F)(F)F)n1 (stereo not shown) [Compound A365, 1-{4-[4-(1-{4-[(2,6-dioxopiperidin-3-yl)amino]-2-fluorophenyl}piperidin-4-yl)piperazin-1-yl]phenyl}-4-({[6-(trifluoromethyl)pyridin-2-yl]carbonyl}amino)pyrazole-3-carboxamide] | < 100 nM | > 60%
12 | Cn1c(=O)n(C2CCC(=O)NC2=O)c2cccc(N3CCC(C(=O)N4CCN(c5ccc(-n6cc(NC(=O)c7cccc(C(F)(F)F)n7)c(C(N)=O)n6)cc5)CC4)CC3)c21 (stereo not shown) [Compound A368, N-(3-Carbamoyl-1-(4-(4-(1-(1-(2,6-dioxopiperidin-3-yl)-3-methyl-2-oxo-2,3-dihydro-1H-benzo[d]imidazol-4-yl)piperidine-4-carbonyl)piperazin-1-yl)phenyl)-1H-pyrazol-4-yl)-6-(trifluoromethyl)picolinamide] | < 100 nM | > 60%
13 | Cn1c(=O)n(C2CCC(=O)NC2=O)c2cccc(N3CCC(CN4CCN(c5ccc(-n6cc(NC(=O)c7cccc(C(F)(F)F)n7)c(C(=O)NC7CC7)n6)cc5)CC4)CC3)c21 (stereo not shown) [Compound A369, N-{3-[(cyclopropylamino)carbonyl]-1-{4-[4-({1-[1-(2,6-dioxopiperidin-3-yl)-3-methyl-2-oxobenzo[d]imidazol-4-yl]piperidin-4-yl}methyl)piperazin-1-yl]phenyl}pyrazol-4-yl}-6-(trifluoromethyl)pyridine-2-carboxamide formate] | < 100 nM | > 60%
14 | Cn1c(=O)n(C2CCC(=O)NC2=O)c2cccc(CN3CCC(N4CCN(c5ccc(-n6cc(NC(=O)c7cccc(C(F)(F)F)n7)c(C(N)=O)n6)cc5)CC4)CC3)c21 (stereo not shown) [Compound A372] | < 100 nM | > 60%
15 | Cn1c(=O)n(C2CCC(=O)NC2=O)c2cccc(N3CCC(N4CCN(Cc5ccc(-n6cc(NC(=O)c7cccc(C(F)(F)F)n7)c(C(N)=O)n6)cc5)CC4)CC3)c21 (stereo not shown) [Compound A373, N-(3-Carbamoyl-1-(4-(4-(1-(1-(2,6-dioxopiperidin-3-yl)-3-methyl-2-oxo-2,3-dihydro-1H-benzo[d]imidazol-4-yl)piperidin-4-yl)piperazin-1-yl)methyl)phenyl)-1H-pyrazol-4-yl)-6-(trifluoromethyl)picolinamide formate] | < 100 nM | > 60%
16 | NC(=O)c1nn(C2CCC(N3CCN(CC4CCN(c5ccc(NC6CCC(=O)NC6=O)cc5F)CC4)CC3)CC2)cc1NC(=O)c1cccc(C(F)(F)F)n1 (stereo not shown) [Compound A374] | < 100 nM | > 60%
17 | NC(=O)c1nn(-c2ccc(N3CCN(CC4CCN(c5ccc(OC6CCC(=O)NC6=O)cn5)CC4)CC3)cc2)cc1NC(=O)c1cccc(C(F)(F)F)n1 (stereo not shown) [Compound A377, N-(3-Carbamoyl-1-(4-(4-((1-(5-((2,6-dioxopiperidin-3-yl)oxy)pyridin-2-yl)piperidin-4-yl)methyl)piperazin-1-yl)phenyl)-1H-pyrazol-4-yl)-6-(trifluoromethyl)picolinamide] | < 100 nM | > 60%
